Test results reported in paper PMC3261798, “Design, Synthesis, and Biological Evaluation of PKD Inhibitors” (Pharmaceutics, 2011).
Counter-ions that a name gives are not always drawn.

Legend:
PKD1 [1] = target: T1, PKD1 (Homo sapiens, UniProt Q15139); assay: IMAP-based PKD Fluorescence Polarization (FP) assay, automated HTS format; type: biochemical; details: mean ± SEM, n = number of independent experiments
T1 sequence (Q15139 1-912): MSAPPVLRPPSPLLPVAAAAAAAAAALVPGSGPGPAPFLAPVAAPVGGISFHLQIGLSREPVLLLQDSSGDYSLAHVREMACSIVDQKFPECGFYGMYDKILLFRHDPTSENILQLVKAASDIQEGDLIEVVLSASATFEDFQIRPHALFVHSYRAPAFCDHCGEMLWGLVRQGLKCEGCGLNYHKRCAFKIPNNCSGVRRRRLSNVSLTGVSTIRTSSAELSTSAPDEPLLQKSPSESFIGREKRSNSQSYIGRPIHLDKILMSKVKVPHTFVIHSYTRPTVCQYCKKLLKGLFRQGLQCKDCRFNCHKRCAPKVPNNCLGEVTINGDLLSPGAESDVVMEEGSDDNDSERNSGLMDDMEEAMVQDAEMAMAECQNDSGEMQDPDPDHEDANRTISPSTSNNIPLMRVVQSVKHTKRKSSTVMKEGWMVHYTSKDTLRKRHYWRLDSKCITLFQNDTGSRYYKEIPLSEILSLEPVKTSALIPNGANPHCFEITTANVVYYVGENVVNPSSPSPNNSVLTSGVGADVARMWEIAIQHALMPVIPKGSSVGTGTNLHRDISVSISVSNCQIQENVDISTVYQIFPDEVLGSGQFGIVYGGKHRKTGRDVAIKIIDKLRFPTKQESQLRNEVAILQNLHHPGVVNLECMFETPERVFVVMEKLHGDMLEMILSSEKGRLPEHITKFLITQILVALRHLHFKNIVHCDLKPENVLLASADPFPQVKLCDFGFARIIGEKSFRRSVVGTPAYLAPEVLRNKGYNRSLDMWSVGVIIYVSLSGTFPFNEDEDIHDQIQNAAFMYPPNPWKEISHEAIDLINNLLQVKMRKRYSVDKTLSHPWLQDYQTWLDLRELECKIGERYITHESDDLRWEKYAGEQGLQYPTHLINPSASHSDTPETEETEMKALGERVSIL
Description: An automated, HTS formatted IMAP-based PKD Fluorescence Polarization (FP) assay was used to assess the specificity of the PKD analogs as previously described. […] Kinase reactions were incubated for 90 min at room temperature and stopped by the addition of IMAP binding reagent. Assay plates were then incubated for 2 h and IMAP-based FP data were captured on a Molecular Devices Spectra-Max M5 (Sunnyvale, CA, USA).

PKD1 [2] = target: T1, PKD1; assay: In vitro radiometric PKD kinase activity assay; type: biochemical; design: purchased Biomol International; details: for IC50: read-out: IC50 Radiometric PKD1; for inhibitory activity against PKD (in words): preliminary biological data for kmg-NB5-13 and kmg-NB5-15
Description: In vitro radiometric PKD kinase assays were conducted as previously described. Briefly, 50 ng recombinant human PKD1 (Biomol International, Plymouth Meeting, PA, USA) was incubated at 30 °C for 10 min with a reaction mixture containing 2.5 μg syntide-2 (Sigma), 70 μM ATP, and 1 μCi γ-^32 P-ATP (PerkinElmer, Boston, MA, USA) in kinase buffer (50 mM Tris-HCl pH 7.5, […], and 10 mM […]). 25 μL of the reaction mixture was then spotted on Whatman P81 filter paper (Whatman Inc., Clifton, NJ, USA), and filter papers were washed three times with 0.5% phosphoric acid, dried, then counted using a Beckman LS6500 multi-purpose scintillation counter.

[3] = mean ± SEM, n = number of independent experiments

Row | Compound | melting point | IC50 IMAP-FP PKD1 (PKD1 [1]) | also measured
1 | CC(=O)Nc1ccc2[nH]c3c(c2c1)CCCNC3=O [kb-NB123-94] | > 300 °C | not inhibitory | 
2 | O=C(CCl)Nc1ccc2sc3c(c2c1)SCCNC3=O [mcf292-09, 3,4-Dihydro-9-(2-chloroacetamido)-[1]benzothieno[2,3-f]-1,4-thiazepin-5(2H)-one] | 229 to 230 °C (dec.) |  | IC50 (PKD1 [2]; [3]): 1.5 µM
3 | Cc1ccc(S(=O)(=O)NN=C2CCNC(=O)c3oc4ccc(O)cc4c32)cc1 [kb-NB142-11, 7-Hydroxy-5-[2-{(4-methylphenyl)sulfony}hydrazono]-2,3,4,5-tetrahydro-[1]benzoxolo[2,3-c]azepin-1-one] | 220 to 224 °C |  | IC50 (PKD1 [1]): 38.2 ± 1.17 µM
4 | COc1nc(OC)c2sc3c(c2n1)SCCNC3=O [kmg-NB5-13C, 2,4-Dimethoxy-7H,8H,9H-1,4-thiazepino[7′,6′-5,4]thiopheno[3,2-d]pyrimidin-6-one] | 288 °C (dec.) |  | IC50 (PKD1 [2]; [3]): > 30 µM; inhibitory activity against PKD (in words) (PKD1 [2]): absence of inhibitory activity
5 | O=C1NCCSc2c1sc1ccc(OCc3ccccc3)cc21 [kb-NB123-66, 3,4-Dihydro-9-benzyloxy-[1]benzothieno[2,3-f]-1,4-thiazepin-5(2H)-one] | 247 to 249 °C | not inhibitory | 
6 | COc1ccc2oc3c(c2c1)CCCN(C)C3=O [kb-NB96-04, 7-Methoxy-2-methyl-2,3,4,5-tetrahydro-[1]benzoxolo[2,3-c]azepin-1-one] | 150 to 151 °C |  | IC50 (PKD1 [1]): > 100 µM
7 | O=C1NCCCc2c1[nH]c1ccc(OCc3ccccc3)cc21 [kb-NB123-53, 3,4,5,10-Tetrahydro-7-benzyloxy-azepino[3,4-b]indol-1(2H)-one] |  | not inhibitory | 
8 | O=C1NCCCc2c1oc1cc(Cl)c(O)cc21 [kb-NB96-47-5, 8-Chloro-7-hydroxy-2,3,4,5-tetrahydro-[1]benzoxolo[2,3-c]azepin-1-one] | 327 to 332 °C |  | 
9 | CC(=O)Nc1ccc2[nH]c3c(c2c1)CCNC3=O [kb-NB123-93, N-(2,3,4,9-Tetrahydro-1-oxo-1H-pyrido[3,4-b]indol-6-yl)-acetamide] | > 300 °C | not inhibitory | 
10 | COc1nc(O)c2sc3c(c2n1)SCCNC3=O [kmg-NB5-15A, 4-Hydroxy-2-methoxy-7H,8H,9H-1,4-thiazepino[7′,6′-5,4]thiopheno[3,2-d]pyrimidin-6-one] | 295 °C (dec.) |  | inhibitory activity against PKD (in words) (PKD1 [2]): absence of inhibitory activity
11 | C=CCOc1ccc2oc3c(c2c1Cl)CCCNC3=O [kb-NB96-50, 7-Allyloxy-6-chloro-2,3,4,5-tetrahydro-[1]benzoxolo[2,3-c]azepin-1-one] | 192 to 194 °C | not inhibitory | 
12 | O=C1NCCSc2c1sc1ccc(N=C=S)cc21 [mcf292-05, 3,4-Dihydro-9-isothiocyanato-[1]benzothieno[2,3-f]-1,4-thiazepin-5(2H)-one] | 253 to 253.3 °C |  | IC50 (PKD1 [2]; [3]): 2.77 µM
13 | O=C1NCCCc2c1oc1cc(Cl)c(O)c(Cl)c21 [kb-NB96-43, 6,8-Dichloro-7-hydroxy-2,3,4,5-tetrahydro-[1]benzoxolo[2,3-c]azepin-1-one] | 298 to 301 °C | not inhibitory | 
14 | CN1CCSc2c(sc3ccc(O)cc23)C1=O [kb-NB165-17, 2,3-Dihydro-4-methyl-9-hydroxy-[1]benzothieno[2,3-f]-1,4-thiazepin-5(2H)-one] | 265 to 268 °C |  | IC50 (PKD1 [2]; [3]): 0.45 ± 0.05 µM
15 | CC(=O)Oc1ccc2oc3c(c2c1)CCCN(C(C)=O)C3=O [kb-NB123-45-1, 2-Acetyl-1-oxo-2,3,4,5-tetrahydro-[1]benzoxolo[2,3-c]azepin-7-yl acetate] | 155 to 157 °C | not inhibitory | 
16 | COc1ccc2oc3c(c2c1)CCNC3=O [kb-NB123-32, 6-Methoxy-3,4-dihydrobenzoxolo[2,3-c]pyridin-1(2H)-one] | 237 to 241 °C |  | IC50 (PKD1 [1]): > 100 µM
17 | CC(C)(C)[Si](C)(C)Oc1ccc2oc(=O)c3c(c2c1)CCCN3 [kb-NB77-78, 9-(tert-Butyldimethylsilyloxy)-1,2,3,4-tetrahydrochromeno[3,4-b]pyridin-5-one] | 117 to 119 °C | not inhibitory | 
18 | O=c1oc2ccc(O)c(Cl)c2c2c1NCCC2 [kb-NB96-47-1, 10-Chloro-9-hydroxy-1,2,3,4-tetrahydrochromeno[3,4-b]pyridin-5-one] | 211 to 213 °C | not inhibitory | 
19 | CC=Cc1c(O)ccc2oc3c(c12)CCCNC3=O [kb-NB96-30, 6-[(E)-2-(Prop-1-enyl) ]-7-hydroxy-2,3,4,5-tetrahydro-[1]benzoxolo[2,3-c]azepin-1-one] | > 300 °C |  | 
20 | COc1ccc2sc3c(c2c1)SCCN(C)C3=O [kb-NB165-16, 2,3-Dihydro-4-methyl-9-methoxy-[1]benzothieno[2,3-f]-1,4-thiazepin-5(2H)-one] | 160 to 161 °C |  | IC50 (PKD1 [2]; [3]): 4.57 ± 0.78 µM
21 | O=C(OCc1ccccc1)N1CCCc2c1c(=O)oc1ccc(O)cc21 [kb-NB77-91, Benzyl 9-hydroxy-5-oxo-1,2,3,4-tetrahydrochromeno[3,4-b]pyridine-4-carboxylate] | 235 to 237 °C | not inhibitory | 
22 | CN1CCCc2c(oc3ccc(O)cc23)C1=O [kb-NB142-25, 7-Hydroxy-2-methyl-2,3,4,5-tetrahydro-[1]benzoxolo[2,3-c]azepin-1-one] | 282 to 284 °C |  | IC50 (PKD1 [2]; [3]): 4 ± 1.1 µM
23 | CC(C)(C)[Si](C)(C)Oc1ccc2oc3c(c2c1)CCCNC3=O [kb-NB77-77, 7-(tert-Butyldimethylsilyloxy)-2,3,4,5-tetrahydro-[1]benzoxolo[2,3-c]azepin-1-one] | 209 to 212 °C | not inhibitory | 
24 | O=C1NCCC(=NOCc2ccccc2)c2c1oc1ccc(O)cc21 [kb-NB142-10, 5-(Benzyloxyimino)-7-hydroxy-2,3,4,5-tetrahydro-[1]benzoxolo[2,3-c]azepin-1-one] | 103 to 110 °C | not inhibitory | 
25 | C=CCOc1ccc2oc(=O)c3c(c2c1)CCCN3 [kb-NB77-83, 9-Allyloxy-1,2,3,4-tetrahydrochromeno[3,4-b]pyridin-5-one] | 90 to 91 °C | not inhibitory | 
26 | O=C1NCCSc2c1sc1cnc(O)nc21 (as salt: hydrochloride) [kmg-NB4-69A, 2-Hydroxy-7H,8H,9H-1,4-thiazepino[7′,6′-5,4]thiopheno[3,2-d]pyrimidin-6-one] | 335.9 °C (dec.) |  | 
27 | CC(=O)Oc1ccc2oc3c(c2c1)CCCNC3=O [kb-NB123-36, 7-Acetoxy-2,3,4,5-tetrahydro-[1]benzoxolo[2,3-c]azepin-1-one] | 196 to 197 °C |  | IC50 (PKD1 [1]): 84.9 ± 3.21 µM
28 | Oc1ccc2oc3c(c2c1)CCCN1CCN=C31 [kb-NB165-15, 9-Hydroxy-3,5,6,7-tetrahydro-2H-benzoxolo[2,3-c]imidazo[1,2-a]azepine] | 230 to 232 °C (dec.) |  | IC50 Radiometric PKD1 (PKD1 [2]; [3]): not inhibitory
29 | COc1ccc2oc3c(c2c1)CCN(C)C3=O [kb-NB123-37, 6-Methoxy-2-methyl-3,4-dihydrobenzoxolo[2,3-c]pyridin-1(2H)-one] | 168 to 172 °C | not inhibitory | 
